Results on one compound are retold here after patent US20260335294A1, “TREATING CONGENITAL DISORDERS OF GLYCOSYLATION” (Mayo Foundation for Medical Education and Research, priority 2022, published 2026).

The subject of one experiment is PMM2-CDG fibroblasts. As to conditions: cited from earlier work.
Experiment [1] concerns patient fibroblasts and healthy controls. Kind of experiment: Quantification of NADPH and NADP. It counts as cell-based, human. As to conditions: 10 μM, 24 h. Here is the method:
Fibroblasts from three patient fibroblasts (P2, P4, P5) and two healthy controls were plated on day 1. The next day medium was changed. The cells were grown in the presence and absence of […] epalrestat for another 24 hours. The medium was then removed, cells were washed with cold saline solution (0.9% NaCl) and 250 μL of extraction buffer (50% MeOH, 30% acetonitrile, 20% H2O Tris-HCl pH 7.6) was added to the cells. The metabolites were precipitated overnight at −80 °C, samples were centrifugated at 20,000 rpm, 20 minutes, 4 °C, and supernatant was transferred to a fresh vial. Pellets were used for determination of protein concentration. Supernatant containing metabolites was analyzed by LC/MS less than 24 hours after the initial collection to avoid degradation of NADPH into NADP. Relative abundance of NADP and NADPH was obtained. […]

The next experiment relates to aldose reductase (AR). As to conditions: role: inhibitor; cited from earlier work.
In another experiment the test system is PMM2-CDG patients. Kind of experiment: Goal attainment scale (GAS) in patients on epalrestat. The format is in vivo, human. The procedure:
Two patients were started on epalrestat on single patient investigational new drug (IND) (P5 IRB: 19-010017; IND #145262; P6 Protocol PMM2-CDG-001/A). Epalrestat was initiated on the parents' own initiative in the third patient (P7). Two patients were in their second year of epalrestat treatment, while the third, was in the 3rd year of treatment. Physical, neurological, and biochemical examinations were performed in 3 PMM2-CDG patients at baseline, and at every three months after the start of the epalrestat treatment. Patients underwent NPCRS phenotype severity assessment and biological sampling at every visit. Epalrestat (Ono Pharmaceuticals, Osaka, Japan) was taken orally 3 times per day (TID) before meals in a divided dose, with dosage escalation throughout the treatment. The pharmacological profile of epalrestat was as described elsewhere (Ligezka et al, Ann. Neurol., 90(6):887-900 (2021)). The starting dosage in P5 and P6 was 0.8 mg/kg/day, while P7 was started on 0.5 mg/kg/day due to their young age. P7 dosage was increased to 0.8 mg/day after a month, once safety was established. Blood and urine samples were collected routinely. Urine polyols, carbohydrate deficient transferrin (CDT), anti-thrombin III (ATIII), liver enzymes (ALT, AST), and complete blood count (CBC) were performed. Modified Brief Ataxia Rating Scale was used to assess ataxia in the 2 patients (P5, P6; P7 was not eligible for the test due to age). The modified BARS scale included Archimedes spiral test, but not the abnormalities of the ocular pursuit system and the scale range was 0-54. Goal attainment scale (GAS) was administered as described per study protocol (ClinicalTrials.gov Identifier: NCT04199000). Quantification of goal attainment levels is done on a 5-point scale ranging from −2 to +2, with 0 indicating the expected level of goal attainment. Three individual goals were established by each patient (parent) at baseline and the progress was annually assessed. Goals included: walking without assistance (Goal #1 P5, P6), communicating with strangers (Goal #2 P5, P6), independent toilet training (Goal #3 P5), to be able to have a healthy and independent life (Goal #3 P6), to be able to equally play with peers (Goal #1 P7), normalization of laboratory results (liver enzymes) (Goal #2 P7), and improved balance to stand and walk (Goal #3 P7).

SMILES strings stand for the structures.

In the case of `CC(/C=C1\SC(=S)N(CC(=O)O)C1=O)=C\c1ccccc1` [epalrestat], in the experiment with PMM2-CDG fibroblasts (PMM2-CDG fibroblasts), the “overall glycosylation as assessed by glycoproteomics” value is listed as “overall glycosylation improvement”. In the experiment on PMM2-CDG fibroblasts (PMM2-CDG, Ligezka et al 2021), the glycosylation in vitro entry is recorded as “improved glycosylation”. For the same compound, the NADP abundance result in experiment [1] is listed as “decreased”. The NADPH abundance result in experiment [1] is listed as “increased”. In addition, the NADPH/NADP ratio entry in experiment [1] (PMM2-CDG n=3, control n=2) is “increased”. For the same compound, in the experiment with aldose reductase (AR), the “mode of inhibition of AR” value is “non-competitive inhibitor”. In addition, the “Goal attainment scale, Goal 2 (scale −2 to +2)” value in the experiment with PMM2-CDG patients (P5, 12 months, 1.5 mg/kg day, communicating with strangers, baseline −2) is on record as −1; in the experiment with PMM2-CDG patients (P5, 24 months, 2 mg/kg day, communicating with strangers, baseline −2) it was −1; with PMM2-CDG patients (P6, 12 months, 1.5 mg/kg day, communicating with strangers, baseline −1), −1; in the experiment on PMM2-CDG patients (P7, 12 months, 1.5 mg/kg day, normalization of laboratory results (liver enzymes), baseline −2), −1. Moreover, the “Goal attainment scale, Goal 3 (scale −2 to +2)” value is on record as −2 with PMM2-CDG patients (P5, 12 months, 1.5 mg/kg day, independent toilet training, baseline −2); −2 with PMM2-CDG patients (P5, 24 months, 2 mg/kg day, independent toilet training, baseline −2); −2 in the experiment on PMM2-CDG patients (P6, 12 months, 1.5 mg/kg day, healthy and independent life, baseline −2); −1 with PMM2-CDG patients (P7, 12 months, 1.5 mg/kg day, improved balance to stand and walk, baseline −2). The “Goal attainment scale, Goal 1 (scale −2 to +2)” value in the experiment on PMM2-CDG patients (P5, 12 months, 1.5 mg/kg day, walking without assistance, baseline −2) was −1; in the experiment on PMM2-CDG patients (P5, 24 months, 2 mg/kg day, walking without assistance, baseline −2), −1; in the experiment on PMM2-CDG patients (P6, 12 months, 1.5 mg/kg day, walking without assistance, baseline −2), −1; with PMM2-CDG patients (P7, 12 months, 1.5 mg/kg day, equally play with peers, baseline −2), −2. Also, the “clinical improvement and quality of life (GAS, self-reported)” value in the experiment with PMM2-CDG patients (all patients, words) is “all patients self-reported clinical improvement and quality of life improvement”.
